In brackets after ≈: the same amount, converted by molar mass.
What was measured:
[1] = tested on: Acinetobacter baumannii strain 5711 (AB5711); assay: Growth (OD600) of AB5711 in low iron media with chelators, with or without FeCl3; type: cell-based; conditions: for bacterial growth (OD600 growth curves): AB5711, low iron media, 100 μM or 200 μM chelator added after 4 hr, 24 hr
Description: Acinetobacter baumannii strain 5711 (AB5711) was grown overnight in LB media and sub-cultured into low iron media. The tested iron chelators were deferoxamine (DFO), deferiprone (DFP), 2,2-dipyridyl, and VK28. The iron chelators were added after 4 hr of growth.
Bacterial growth was estimated by absorption at OD600 every 4 hr for 24 hr. Optical density (OD) at 600 nm (OD600) as measured by a spectrophotometer is a widely used technique known by one skilled in the art to estimate the total number of bacterial cells present in a broth culture (CFU/ml). The exact amount of OD produced by a culture will depend on the concentration of cells present, the species and strain of microbe present, the growth conditions used, and the wavelength of the light being transmitted. Thus, the relationship between OD and cell concentrations will depend on the specific strain and growth conditions studied. For example, the OD600 of 1 for E. coli is about 1×10^9 CFU/ml.
This example provides further evidence that the removal of iron is responsible for bacterial growth inhibition. A. baumannii isolate 5711 was grown in low iron M9 media supplemented with 0 μM, 10 μM, or 100 μM FeCl3 with and without the addition of 200 μM VK28 following 4 hr of growth. Growth was estimated by absorbance at 600 nm every 4 hr for 24 hr.
This example provides further evidence that the removal of iron is responsible for bacterial growth inhibition. A. baumannii isolate 5711 was grown in low iron M9 media supplemented with 0 μM, 10 μM, 100 μM, or 1000 μM FeCl3 with and without the addition of 50 μg/ml of VK28 following 4 hr of growth. Growth was estimated by absorbance at 600 nm after 20 hours.

AB5075 = assay: Time-kill assay in M9 minimal media; type: cell-based, A. baumannii; conditions: 24 hours
Description: Reductions in colony forming units (CFU)/mL were determined over time (time-kill assay) after exposure to VK28 and deferiprone (DFP), the two iron chelators that performed best in MIC assays when compared to controls. To better represent the iron content found in the human body, MIC and time-kill assays were also determined in minimal media and tissue culture media. Time-Kill assays were performed as previously described in G. P. Neupane et al., “In vitro time-kill activities of ciprofloxacin alone and in combination with the iron chelator deferasirox against Vibrio vulnificus,” European Journal of Clinical Microbiology and Infectious Diseases, 407-410 (2010); and R. L. White, et al., “Comparison of Three Different In Vitro Methods of Detecting synergy: Time-Kill, Checkerboard, and E test,” Journal of Antimicrobial Agents and Chemotherapy, 1914-1918 (1996). Initial inocula, for example 1×10^6 CFU/mL or 1×10^7 CFU/mL were challenged with iron chelator with and/or without an antibiotic. Cells were allowed to grow in CAMHB at 37° C. for 24 hours. Time-kill results were analyzed by determining the change in log 10 numbers of CFU/ml at 0, 6, and 24 h, compared to counts at 0 h. Antimicrobials were considered bactericidal at the lowest concentration that reduced the size of the original inoculum by >3 log 10 CFU/ml (99.9%) over each of the time periods and were considered bacteriostatic if the inoculum's size was reduced by 0 to <3 log 10 CFU/ml.
The untreated sample (♦) had greater than 1×10^9 CFU/mL after 9 hours that was sustained at 24 hours.

WBA 2090 E. faecilium = assay: MIC, similar assays; type: cell-based
Description: Individual MICs were determined following the microdilution method recommended by CLSI in cationic-adjusted Mueller-Hinton Broth (CAMHB), or M9 media. […] Tests were performed in triplicate. MIC of iron chelators were determined for noscomial ESKAPE pathogens.

EC 35218, EC 43888 = assay: Checkerboard assay, chelator with antibiotic (FIC); type: cell-based, E. coli
Text: Drug interactions were initially evaluated with the “checkerboard” microdilution design, which provided a matrix of all drug combinations assayed in terms of fractions of the previously determined MIC. The checkerboard microdilution design is described in R. J. Tallarida, “Drug Synergism: Its Detection and Applications,” Journal of Pharmacology and Experimental Therapeutics, 865-872 (2001); and in R. L. White, et al., (1996), supra. FIGS. 39A and 39B show the wellplates having different concentrations of iron chelator and antibiotic, as labeled along the x-axis and y-axis.
The checkerboard assay was used to asses other combinations of iron chelators and antibiotics. The fractional inhibitory concentration index (FIC), which was calculated as follows: FIC=(MIC A in combination/MIC A)+(MIC B in combination/MIC B). Interaction was defined as synergistic if the FIC was <1.0, preferably <0.5, no interaction if the FIC was >1.0 and <4.0, and antagonistic if the FIC was >4.0. […]
The assay was run against the multi-drug resistant bacterial species AB 19606, AB 17978, EC 35218, and EC 43888.

Pseudomonas aeruginosa = assay: Growth (OD600) with VK28 in M9 media with magnesium / calcium; type: cell-based; conditions: 24 hours
Description: Pseudomonas aeruginosa was grown similar to as described in Example 21 in M9 media containing 2 mM MgSO4 for 24 hours in the presence of 0 μg/ml, 50 μg/ml, 100 μg/ml, or 200 μg/ml VK28. The OD600 was measured at 0, 4, and 24 hour and the results are shown in the time-kill curves of FIG. 20.
(§1) In this example, strains of MR Staphylococcus aureus (MRSA), Acinetobacter baumannii (Acinetobacter), Escherichia coli (E. coli), and Pseudomonas aeruginosa (Pseudomonas) were grown in M9 media in the presence of 2 mM MgSO4 and 1.35 mM CaCl2 for 24 hours in the presence or absence of 0 μg/ml, 50 μg/ml, 100 μg/ml, or 200 μg/ml of VK28. The OD600 was measured at 24 hour and the results are shown in the bar graph of FIG. 21.

[2] = tested on: MR Staphylococcus aureus (MRSA); assay: Growth (OD600) with VK28 in M9 media with magnesium and calcium; type: cell-based; conditions: M9 with 2 mM MgSO4 and 1.35 mM CaCl2; 24 hours
Description: as §1

[3] = EC 35218, in combination with Cefotaxine
[4] = EC 35218, in combination with Colisitin
[5] = EC 35218, in combination with Doxycycline
[6] = EC 35218, in combination with Rifampin
[7] = EC 43888, in combination with Cefotaxine
[8] = EC 43888, in combination with Colisitin
[9] = EC 43888, in combination with Doxycycline
[10] = EC 43888, in combination with Rifampin

Compound	bacterial growth (OD600 growth curves) [1]	time-kill course of CFU/ml (AB5075; 0.5×MIC)	time-kill course of CFU/ml (AB5075; 1×MIC)	time-kill course of CFU/ml (AB5075; 2×MIC)	MIC (WBA 2090 E. faecilium) [µg/mL]	FIC (EC 35218, EC 43888; [3])	FIC (EC 35218, EC 43888; [4])	FIC (EC 35218, EC 43888; [5])	FIC (EC 35218, EC 43888; [6])	FIC (EC 35218, EC 43888; [7])	FIC (EC 35218, EC 43888; [8])	FIC (EC 35218, EC 43888; [9])	FIC (EC 35218, EC 43888; [10])	growth with FeCl3 added (absorbance at 600 nm after 20 hours) ([1]; 50 μg/ml of VK28 with 10, 100 or 1000 μM FeCl3, low iron M9 media)	growth with free iron added back ([1]; 200 μM VK28 with 10 μM or 100 μM FeCl3, low iron M9 media)	inhibition of growth (OD600) (Pseudomonas aeruginosa; M9 with 2 mM MgSO4, 50-200 μg/ml VK28)	inhibition of growth (OD600) (Pseudomonas aeruginosa; M9 with 2 mM MgSO4 and 1.35 mM CaCl2)	inhibition of growth (OD600) [2]
Cc1c(O)c(=O)ccn1C [ApoL1, 3-hydroxy-1,2-dimethyl-4(1H)-pyridone]	somewhat reduced bacterial growth	slight reduction in CFU/ml levels over the 24 hour period	slight reduction in CFU/ml levels over the 24 hour period	sustained level of CFU/ml obtained over the 24 hour period	600 to 700 (≈ 4.31 to 5.03 mM)	1.25	1.25	1.25	0.75	1.25	1.25	1.25	0.75	–	–	–	–	–
OCCN1CCN(Cc2ccc(O)c3ncccc23)CC1 [VK28, 5-(4-(2-hydroxyethyl)piperazin-1-ylmethyl)-8-hydroxyquinoline]	reduced bacterial growth to a significant extent	slight inhibitory effect on the CFU/ml over the 24 hours	slight inhibitory effect on the CFU/ml over the 24 hours	slight inhibitory effect on the CFU/ml over the 24 hours	–	–	–	–	–	–	–	–	–	inhibition of growth can be rescued by the addition of FeCl3	bacteria are rescued from the VK28 growth inhibition	inhibition of growth of Pseudomonas aeruginosa is not reduced in the presence of magnesium	inhibition of growth of a number of strains of bacteria is not reduced in the presence of magnesium and calcium	inhibition of growth of a number of strains of bacteria is not reduced in the presence of magnesium and calcium
CNC(=O)c1c(O)c(=O)cc(C)n1C1CC1 [Apo6619, 1-cyclopropyl-3-hydroxy-6-methyl-4-oxo-1,4-dihydro-pyridine-2-carboxylic acid methylamide]	–	–	–	–	–	1.25	1.25	1.25	1.75	1.25	1.25	1.25	0.75	–	–	–	–	–

— US10064858B2, “Methods and compositions for treating bacterial infections with iron chelators” (THE UNITED STATES OF AMERICA, AS REPRESENTED BY THE …, priority 2011, dated 2018)
